Laboratory results as given in BindingDB's records for doi:10.7270/Q2KK9971 (Nmmlsc, 2009).

Biological target: T1, GTPase KRas [1-37] (Homo sapiens, UniProt G3V5T7)
T1 construct: 1-37
Test: inhibition of fluorescent GTP binding to wild-type Ras – biochemical, pyrazoline analogs, multiplex bead flow cytometry, SAR follow-up (AID 2047)
Conditions: not given

T1 sequence (G3V5T7 whole entry): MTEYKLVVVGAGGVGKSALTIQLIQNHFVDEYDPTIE

Structure (SMILES)	EC50
COc1ccc(C2CC(c3ccccc3)=NN2c2cccc(S(N)(=O)=O)c2)cc1 (centres undefined) [3-[3-(4-methoxyphenyl)-5-phenyl-3,4-dihydropyrazol-2-yl]benzenesulfonamide]	> 30 µM
COc1ccc(C2CC(c3cccs3)=NN2c2ccc(S(N)(=O)=O)cc2)cc1 (centres undefined) [KUC103438N]	> 30 µM
COc1ccc(C2CC(c3ccc(C(F)(F)F)cc3)=NN2c2ccc(S(N)(=O)=O)cc2)cc1 (centres undefined) [4-[3-(4-methoxyphenyl)-5-[4-(trifluoromethyl)phenyl]-3,4-dihydropyrazol-2-yl]benzenesulfonamide]	> 30 µM
COc1ccc(C2CC(c3ccccc3C(F)(F)F)=NN2c2ccc(S(N)(=O)=O)cc2)cc1 (centres undefined) [KUC103474N]	> 30 µM
COc1ccc(C2CC(c3ccccc3)=NN2c2ccc(C(=O)O)cc2)cc1 (centres undefined) [UNM-0000306085]	> 30 µM
Clc1cccc(N2N=C(c3ccccc3)CC2c2ccccc2)c1 (centres undefined)	> 30 µM
COc1ccc(C2=NN(c3ccc(Cl)cc3)C(c3ccccc3F)C2)cc1 (centres undefined) [UNM-0000305863]	> 30 µM
COc1ccc(C2=NN(c3ccc(S(N)(=O)=O)cc3)C(c3ccc(OC)cc3)C2)cc1 (centres undefined) [4-[3,5-bis(4-methoxyphenyl)-3,4-dihydropyrazol-2-yl]benzenesulfonamide]	> 30 µM
COc1ccc(C2=NN(c3cccc(F)c3)C(c3ccc(Cl)cc3)C2)cc1 (centres undefined) [3-(4-chlorophenyl)-2-(3-fluorophenyl)-5-(4-methoxyphenyl)-3,4-dihydropyrazole]	> 30 µM
COc1ccc(C2CC(c3ccc(Br)cc3)=NN2c2ccc(S(N)(=O)=O)cc2)cc1 (centres undefined) [UNM-0000306138]	> 30 µM
COc1ccc(C2CC(C3CCCCC3)=NN2c2ccc(S(N)(=O)=O)cc2)cc1 (centres undefined) [4-[5-cyclohexyl-3-(4-methoxyphenyl)-3,4-dihydropyrazol-2-yl]benzenesulfonamide]	> 30 µM
CN(C)c1ccc(C2CC(c3ccc(Cl)cc3)=NN2c2ccccc2)cc1 (centres undefined) [UNM-0000305847]	> 30 µM
COc1ccc(C2CC(C)=NN2c2ccc(S(N)(=O)=O)cc2)cc1 (centres undefined) [4-[3-(4-methoxyphenyl)-5-methyl-3,4-dihydropyrazol-2-yl]benzenesulfonamide]	> 30 µM
Cc1ccccc1C1CC(c2ccccc2)=NN1c1ccc(S(N)(=O)=O)cc1 (centres undefined) [UNM-0000306148]	> 30 µM
O=[N+]([O-])c1cccc(C2C[C-](c3ccccc3)N=[N+]2c2ccccc2)c1 (centres undefined) [UNM-0000305857]	> 30 µM
COc1ccc(C2CC(c3ccc(F)cc3)=NN2c2cc(Cl)ccc2Cl)cc1 (centres undefined) [2-(2,5-dichlorophenyl)-5-(4-fluorophenyl)-3-(4-methoxyphenyl)-3,4-dihydropyrazole]	> 30 µM
COc1ccc(C2CC(c3ccc(F)cc3)=NN2c2cccc(F)c2)cc1OC (centres undefined)	> 30 µM
O=[N+]([O-])c1ccc([N+]2=N[C-](c3ccccc3)CC2c2ccc(O)cc2)cc1 (centres undefined) [UNM-0000305838]	> 30 µM
COc1ccc(C2CC(c3cccc(C(F)(F)F)c3)=NN2c2ccc(S(N)(=O)=O)cc2)cc1 (centres undefined)	> 30 µM
COc1ccc(C2CC(c3ccc(Br)cc3)=NN2c2ccccc2Cl)cc1 (centres undefined) [UNM-0000305832]	> 30 µM
O=C(O)c1ccc(N2N=C(c3ccccc3)CC2c2ccccc2)cc1 (centres undefined)	> 30 µM
CN(C)c1ccc(C2CC(c3ccc(F)cc3)=NN2c2ccccc2)cc1 (centres undefined) [UNM-0000305866]	> 30 µM

Structure (SMILES)	EC50
FC(F)(F)c1ccccc1C1CC(c2ccc(Br)cc2)=NN1c1ccccc1 (centres undefined) [5-(4-bromophenyl)-2-phenyl-3-[2-(trifluoromethyl)phenyl]-3,4-dihydropyrazole]	> 30 µM
COc1ccc(C2CC(c3ccsc3)=NN2c2ccc(S(N)(=O)=O)cc2)cc1 (centres undefined) [4-[3-(4-methoxyphenyl)-5-thiophen-3-yl-3,4-dihydropyrazol-2-yl]benzenesulfonamide]	> 30 µM
Fc1ccccc1C1CC(c2ccc(Br)cc2)=NN1c1ccc(Br)cc1 (centres undefined) [2,5-bis(4-bromophenyl)-3-(2-fluorophenyl)-3,4-dihydropyrazole]	> 30 µM
COc1ccc(C2CC(c3ccccc3)=NN2c2ccc(S(N)(=O)=O)cc2)cc1OC (centres undefined) [UNM-0000305823]	> 30 µM
COc1ccc(C2CC(c3ccccc3Br)=NN2c2ccc(S(N)(=O)=O)cc2)cc1 (centres undefined) [UNM-0000306112]	> 30 µM
COc1ccc(C2=NN(c3ccccc3)C(c3ccc(Cl)cc3)C2)cc1 (centres undefined) [UNM-0000305833]	> 30 µM
COc1ccc(C2CC(c3cccc(Br)c3)=NN2c2ccc(S(N)(=O)=O)cc2)cc1 (centres undefined) [UNM-0000306113]	> 30 µM
COc1ccc(C2CC(c3ccccc3F)=NN2c2ccc(S(N)(=O)=O)cc2)cc1 (centres undefined) [UNM-0000306110]	> 30 µM
COc1ccc(C2CC(c3ccc(F)cc3)=NN2c2ccccc2)cc1OC (centres undefined) [UNM-0000305864]	> 30 µM
Cc1ccc(-c2cc(C(F)(F)F)nn2-c2ccc(S(N)(=O)=O)cc2)cc1 [Celecoxib]	> 30 µM
Cc1ccccc1[N+]1=N[C-](c2ccccc2)CC1c1cccc([N+](=O)[O-])c1 (centres undefined) [UNM-0000305854]	> 30 µM
NS(=O)(=O)c1ccc(N2N=C(c3ccccc3)CC2c2ccc(Cl)cc2)cc1 (centres undefined) [4-[3-(4-chlorophenyl)-5-phenyl-3,4-dihydropyrazol-2-yl]benzenesulfonamide]	> 30 µM
NS(=O)(=O)c1ccc(N2N=C(c3ccccc3)CC2c2ccccc2Br)cc1 (centres undefined) [4-[3-(2-bromophenyl)-5-phenyl-3,4-dihydropyrazol-2-yl]benzenesulfonamide]	> 30 µM
NS(=O)(=O)c1ccc(N2N=C(c3ccccc3)CC2c2ccc(Br)cc2)cc1 (centres undefined) [UNM-0000306160]	> 30 µM
NS(=O)(=O)c1ccc(N2N=C(c3ccccc3)CC2c2cccc(Cl)c2)cc1 (centres undefined) [UNM-0000306161]	> 30 µM
COc1ccc(C2CC(c3ccccc3C)=NN2c2ccc(S(N)(=O)=O)cc2)cc1 (centres undefined) [UNM-0000306152]	> 30 µM
COc1ccc(C2CC(c3ccc(C)cc3)=NN2c2ccc(S(N)(=O)=O)cc2)cc1 (centres undefined)	> 30 µM
COc1ccc(C2CC(c3cccc(F)c3)=NN2c2ccc(S(N)(=O)=O)cc2)cc1 (centres undefined) [4-[5-(3-fluorophenyl)-3-(4-methoxyphenyl)-3,4-dihydropyrazol-2-yl]benzenesulfonamide]	> 30 µM
COc1ccccc1C1CC(c2ccccc2)=NN1c1ccc(S(N)(=O)=O)cc1 (centres undefined) [4-[3-(2-methoxyphenyl)-5-phenyl-3,4-dihydropyrazol-2-yl]benzenesulfonamide]	> 30 µM
COc1ccc(C2CC(c3cccc(C)c3)=NN2c2ccc(S(N)(=O)=O)cc2)cc1 (centres undefined) [UNM-0000306153]	> 30 µM
COc1ccc(C2CC(c3cccc(Cl)c3)=NN2c2ccc(S(N)(=O)=O)cc2)cc1 (centres undefined) [UNM-0000306134]	> 30 µM
COc1ccc(C2=NN(c3cccc(F)c3)C(c3ccc(OC)cc3)C2)cc1 (centres undefined) [2-(3-fluorophenyl)-3,5-bis(4-methoxyphenyl)-3,4-dihydropyrazole]	> 30 µM

Structure (SMILES)	EC50
O=S(=O)(O)c1ccc(N2N=C(c3ccccc3)CC2c2ccccc2)cc1 (centres undefined) [UNM-0000305834]	> 30 µM
COc1ccc(C2CC(c3ccccc3)=NN2c2ccc(C(N)=O)cc2)cc1 (centres undefined) [UNM-0000305870]	> 30 µM
COc1ccc(C2=NN(c3ccc(Cl)c(Cl)c3)C(c3ccc(OC)cc3)C2)cc1 (centres undefined) [2-(3,4-dichlorophenyl)-3,5-bis(4-methoxyphenyl)-3,4-dihydropyrazole]	> 30 µM
NS(=O)(=O)c1ccc(N2N=C(c3ccccc3)CC2c2ccccc2)cc1 (centres undefined) [4-(3,5-diphenyl-3,4-dihydropyrazol-2-yl)benzenesulfonamide]	> 30 µM
Fc1ccc(C2=NN(c3cccc(Br)c3)C(c3ccccc3)C2)cc1 (centres undefined) [2-(3-bromophenyl)-5-(4-fluorophenyl)-3-phenyl-3,4-dihydropyrazole]	> 30 µM
CC(=O)Oc1ccc(C2=NN(c3ccccc3)C(c3ccccc3)C2)cc1 (centres undefined)	> 30 µM
COc1ccc(C2CC(c3ccccc3)=NN2c2ccc(Cl)c(C(=O)O)c2)cc1OC (centres undefined) [2-chloro-5-[3-(3,4-dimethoxyphenyl)-5-phenyl-3,4-dihydropyrazol-2-yl]benzoic acid]	> 30 µM
COc1ccc(C2CC(c3ccc(Cl)cc3)=NN2c2ccc(S(N)(=O)=O)cc2)cc1 (centres undefined)	> 30 µM
COc1ccc(C2CC(c3cccnc3)=NN2c2ccc(S(N)(=O)=O)cc2)cc1 (centres undefined)	> 30 µM
CCc1ccc(C2=NN(c3ccc(S(N)(=O)=O)cc3)C(c3ccc(F)cc3)C2)cc1 (centres undefined)	> 30 µM
COc1ccc(C2=NN(c3ccccc3)C(c3ccc(OC)c(OC)c3C(=O)O)C2)cc1 (centres undefined) [UNM-0000305848]	> 30 µM
COc1ccccc1C1CC(c2ccccc2)=NN1c1ccccc1 (centres undefined)	> 30 µM
COc1ccc(C2CC(c3ccc(N(C)C)cc3)=NN2c2ccc(S(N)(=O)=O)cc2)cc1 (centres undefined) [KUC103422N]	> 30 µM
COc1ccc(-c2cc(-c3ccccc3)nn2-c2ccc(S(N)(=O)=O)cc2)cc1 [4-[5-(4-methoxyphenyl)-3-phenylpyrazol-1-yl]benzenesulfonamide]	> 30 µM
NS(=O)(=O)c1ccc(N2N=C(c3ccc(Br)cc3)CC2c2ccc(F)cc2)cc1 (centres undefined) [4-[5-(4-bromophenyl)-3-(4-fluorophenyl)-3,4-dihydropyrazol-2-yl]benzenesulfonamide]	> 30 µM
Cc1ccc(C2CC(c3ccccc3)=NN2c2ccc(S(N)(=O)=O)cc2)cc1 (centres undefined)	> 30 µM
Cc1cccc(N2N=C(c3ccccc3)CC2c2ccccc2)c1 (centres undefined) [UNM-0000305835]	> 30 µM
COc1ccccc1N1N=C(c2ccccc2)CC1c1ccccc1 (centres undefined) [UNM-0000305855]	> 30 µM
Clc1ccc(N2N=C(c3ccccc3)CC2c2ccccc2)cc1 (centres undefined)	> 30 µM
COc1cccc(C2CC(c3ccccc3)=NN2c2ccc(S(N)(=O)=O)cc2)c1 (centres undefined) [4-[3-(3-methoxyphenyl)-5-phenyl-3,4-dihydropyrazol-2-yl]benzenesulfonamide]	> 30 µM

Same assay, conditions: inactive by the depositor's call

Structure (SMILES)	EC50
NS(=O)(=O)c1ccc(N2N=C(c3ccc(Cl)cc3)CC2c2ccccc2)cc1 (centres undefined)	0.096 µM
COc1ccc(C2=NN(c3ccccc3)C(c3ccccc3C(F)(F)F)C2)cc1 (centres undefined)	17.7 µM
CN(C)c1ccc(C2CC(c3ccccc3)=NN2c2ccccc2)cc1 (centres undefined) [4-(2,5-diphenyl-3,4-dihydropyrazol-3-yl)-N,N-dimethylaniline]	0.049 µM
COc1ccc(C2CC(c3ccccc3)=NN2c2ccc(Cl)c(C(=O)O)c2)cc1 (centres undefined)	1.03 µM
COc1ccc(C2CC(c3ccc(F)cc3)=NN2c2ccc(S(N)(=O)=O)cc2)cc1 (centres undefined) [4-[5-(4-fluorophenyl)-3-(4-methoxyphenyl)-3,4-dihydropyrazol-2-yl]benzenesulfonamide]	0.028 µM
